Data on 18 molecules can be found in ChEMBL document CHEMBL5614412, “Regulation of protein phosphorylation by PTPN2 and its small-molecule inhibitors/degraders as a potential disease treatment strategy” (Eur J Med Chem, 2024).

Molecules are shown by their SMILES. Starred links: 1 amine or outer side, 2 acyl side, 3 side chain; linkers in the order of their positions; H or OH if unused. Non-standard residues stand in square brackets, D forms with d. Residues, ends and D or L forms follow the SMILES beside them. ξ: configuration not given here. *: point of attachment. NHCH2(1,3-C6H4)CH2CO = O=C(Cc1cccc(CN[*:1])c1)[*:2]; ξF2Pmp = NC(Cc1ccc(C(F)(F)P(=O)(O)O)cc1)C(=O)O; Benzoyl(3-Br,4-Me) = Cc1ccc(C(=O)*)cc1Br; ξPro(4R-OH) = O=C(O)C1C[C@@H](O)CN1; X2 = Cc1ncsc1-c1ccc([C@H](C)N*)cc1; Tle = CC(C)(C)[C@H](N)C(=O)O; X1 = COc1ccc(CC(=O)*)cc1O

By DC50 is commonly meant the concentration giving 50% degradation. What is called IC50 is the concentration that inhibits the measured activity by half. The EC50 is the concentration at which the effect is half-maximal.

Assay [1] addresses Protein cereblon/Tyrosine-protein phosphatase non-receptor type 2 (Homo sapiens, UniProt P17706+Q96SW2). Nature of the assay: PROTAC activity at PTPN2/CRBN in HEK293 cells assessed as protein degradation measured for 48 hrs by Western blot analysis. Format: cell-based. In general terms: In western blotting, separated proteins are transferred to a membrane and probed.
Assay [2] deals with T1, Tyrosine-protein phosphatase non-receptor type 2 (Homo sapiens, UniProt P17706).
T1 sequence (P17706 whole entry): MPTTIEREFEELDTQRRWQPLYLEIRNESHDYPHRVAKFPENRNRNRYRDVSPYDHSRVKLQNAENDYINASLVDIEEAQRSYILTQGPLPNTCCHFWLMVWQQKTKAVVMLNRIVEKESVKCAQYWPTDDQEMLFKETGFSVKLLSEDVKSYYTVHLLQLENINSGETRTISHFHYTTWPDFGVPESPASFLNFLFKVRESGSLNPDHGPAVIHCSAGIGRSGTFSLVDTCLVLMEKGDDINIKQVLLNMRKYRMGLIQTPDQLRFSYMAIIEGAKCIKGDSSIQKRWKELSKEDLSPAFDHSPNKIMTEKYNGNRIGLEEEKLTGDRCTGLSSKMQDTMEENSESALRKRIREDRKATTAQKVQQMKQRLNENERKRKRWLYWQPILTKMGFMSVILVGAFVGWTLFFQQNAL
The assay is described as follows: Inhibition of PTPN2 (unknown origin).

A further assay has as its system B16. The assay is described as follows: Antiproliferative activity against mouse B16 cells. Format: functional, cell-based.
In assay [3] the target is T2, Tyrosine-protein phosphatase non-receptor type 1 (Homo sapiens, UniProt P18031).
T2 sequence (P18031 whole entry): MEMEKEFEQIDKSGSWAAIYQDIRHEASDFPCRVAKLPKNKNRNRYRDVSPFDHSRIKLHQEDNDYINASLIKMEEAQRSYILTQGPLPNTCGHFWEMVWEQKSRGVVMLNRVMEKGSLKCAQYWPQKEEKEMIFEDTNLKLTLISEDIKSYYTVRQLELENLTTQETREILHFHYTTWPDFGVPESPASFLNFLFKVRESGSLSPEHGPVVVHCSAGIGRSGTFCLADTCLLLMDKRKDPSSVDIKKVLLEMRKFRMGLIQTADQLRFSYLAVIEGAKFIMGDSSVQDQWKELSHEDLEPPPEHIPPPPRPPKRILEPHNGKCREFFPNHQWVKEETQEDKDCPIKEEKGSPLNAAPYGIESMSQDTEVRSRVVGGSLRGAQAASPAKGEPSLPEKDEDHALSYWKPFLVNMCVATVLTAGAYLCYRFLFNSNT
Nature of the assay: Inhibition of PTP1B (unknown origin).

The species named for a further assay is Homo sapiens. Nature of the assay: Selectivity index, ratio of DC50 for PROTAC activity at PTP1B/CRBN in HEK293 cells to DC50 for PROTAC activity at PTPN2/CRBN in HEK293 cells. Format: cell-based.
The target in assay [4] is Protein cereblon/Tyrosine-protein phosphatase non-receptor type 1 (Homo sapiens, UniProt P18031+Q96SW2). Nature of the assay: PROTAC activity at PTP1B/CRBN in HEK293 cells assessed as protein degradation measured for 48 hrs by Western blot analysis. The assay is classed as cell-based.
Assay [5] has as its target T1, Tyrosine-protein phosphatase non-receptor type 2.
Description: Inhibition of full-length human recombinant PTPN2 incubated for 20 mins by mobile shift assay
Assay [6] has the same target. The source holds these as a separate data set.
Description: Inhibition of human PTPN2 extracted from Escherichia coli BL21 (DE3) by fluorescence based analysis
Assay [7] is described as follows: Inhibition of PTP1B/PTPN2 (unknown origin) in mouse B16 cells. The assay is classed as cell-based, Homo sapiens.

Sequence of Protein cereblon/Tyrosine-protein phosphatase non-receptor type 2 (Q96SW2 whole entry, one chain of several): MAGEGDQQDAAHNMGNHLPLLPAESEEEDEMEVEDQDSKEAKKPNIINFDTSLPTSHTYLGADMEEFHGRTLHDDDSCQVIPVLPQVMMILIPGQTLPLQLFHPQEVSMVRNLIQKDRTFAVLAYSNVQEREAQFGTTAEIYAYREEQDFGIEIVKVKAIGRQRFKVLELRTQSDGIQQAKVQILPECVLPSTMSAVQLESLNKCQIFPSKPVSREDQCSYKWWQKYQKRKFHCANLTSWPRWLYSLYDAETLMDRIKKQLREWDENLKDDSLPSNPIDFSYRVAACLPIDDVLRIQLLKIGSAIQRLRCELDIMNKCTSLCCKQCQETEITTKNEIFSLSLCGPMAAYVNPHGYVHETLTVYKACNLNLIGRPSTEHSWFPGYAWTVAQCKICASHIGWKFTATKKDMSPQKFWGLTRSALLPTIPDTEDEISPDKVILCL
Sequence of Protein cereblon/Tyrosine-protein phosphatase non-receptor type 1 (Q96SW2 whole entry, one chain of several): as above

As for `Cn1c(=O)n(C2CCC(=O)NC2=O)c2ccc(-c3ccc(CC(=O)Nc4ccc5c(F)c(N6CC(=O)NS6(=O)=O)c(O)cc5c4)cc3)cc21` (centres undefined), the 50% degradation concentration (DC50) in [1] came to 10 nM.

In the case of `CC1CCN=C(Nc2cc(O)c(N3CC(=O)NS3(=O)=O)c(F)c2)N1` (centres undefined), the concentration for half-maximal inhibition (IC50) in [2] turned out to be 10 nM; in the assay on B16, 5000 nM.

In the case of `CCc1cc(C[C@H](NC(C)=O)C(=O)NCCCCOc2cccc(O)c2C(=O)OC)ccc1N(C(=O)C(=O)O)c1ccccc1C(=O)O`, the midpoint of inhibition in assay [2], the IC50, lay at 65 nM.

In the assay on B16, `CC(C)CCN[C@@H]1C[C@H]2C[C@@H]1c1c2cc(O)c(N2CC(=O)NS2(=O)=O)c1F` gave an IC50 of 7820 nM.

As for `O=C1CN(c2c(O)cc(NC(=O)NC3CCCCC3)cc2F)S(=O)(=O)N1`, the IC50 in assay [2] was under 5 nM; in the assay on B16, under 5000 nM.

`COc1cc(CC(=O)NC(Cc2ccccc2)C(=O)NC(Cc2ccc(C(F)(F)P(=O)(O)O)cc2)C(=O)N[C@@H](CCCCNC(=O)c2ccc(C)c(Br)c2)C(N)=O)ccc1O` (some centres undefined) displayed an IC50 in [3] of 120 nM.

With `N#Cc1ccc2cc(Br)c(C(F)(F)P(=O)(O)O)cc2c1`, in assay [2], the IC50 came to 7.1 nM.

As to `O=C1CN(c2c(O)cc3c(c2F)C[C@H](NCCC(F)F)N3)S(=O)(=O)N1`, the results for the IC50 (in [2]; in [3]; with B16) were 10 nM, 10 nM and 700 nM, respectively.

Molecule `CC(C)CCNC1CNc2cc(O)c(N3CC(=O)NS3(=O)=O)c(F)c2C1` (centres undefined) yielded a half-maximal inhibitory concentration (IC50) with B16 of 1400 nM.

On to `COc1ccc(CC(=O)N[C@@H](Cc2ccccc2)C(=O)NC(Cc2ccc(C(F)(F)P(=O)(O)O)cc2)C(=O)N[C@@H](CCCCNC(=O)c2ccc(C)c(Br)c2)C(=O)NCc2cccc(CC(=O)N[C@H](C(=O)N3C[C@H](O)CC3C(=O)N[C@@H](C)c3ccc(-c4scnc4C)cc3)C(C)(C)C)c2)cc1O` (stereo partly drawn) (X1-F[ξF2Pmp]K(Benzoyl(3-Br,4-Me))[NHCH2(1,3-C6H4)CH2CO][Tle][ξPro(4R-OH)]-X2), for which the 50% degradation concentration (DC50) in assay [1] worked out at 7 nM; in assay [4], 14.8 nM. The Selectivity Index in the assay listed under Homo sapiens came to 2.1.

As to `O=C1CN(c2c(O)cc3c(c2F)C[C@H](NCCCC(F)F)CS3)S(=O)(=O)N1`, the values for the 50% inhibitory concentration (IC50) (in assay [2]; in assay [3]; in the assay on B16) were under 10 nM, under 10 nM and 160 nM, respectively.

For the molecule `O=C1CN(c2c(O)cc3ccc(NCC4CC4)cc3c2F)S(=O)(=O)N1`, the half-inhibitory concentration (IC50) in assay [5] and in [6] was 3.9 nM in each case. In assay [7], this molecule came in with an EC50 of 2650 nM.

On to `Cc1ncsc1-c1ccc(C(C)CC(=O)[C@H]2C[C@H](O)CN2C(=O)[C@@H](NC(=O)CCCCCNC(=O)n2cc(-c3ccc4cc(O)c(N5CC(=O)NS5(=O)=O)c(F)c4c3)cn2)C(C)(C)C)cc1` (some centres undefined), for which the 50% degradation concentration (DC50) in [1] is 217 nM; in assay [4] it was 13100 nM. In addition, in the assay filed under Homo sapiens, the Selectivity Index is over 60.

For the molecule `CC1(C)C[C@H](Nc2cccc(-c3sc(C(=O)O)c(OCC(=O)O)c3Cl)c2)CCN1S(=O)(=O)Cc1cccc(NC(=O)N2CCC(c3ccc4c5c(cccc35)C(=O)N4[C@@H]3CCC(=O)NC3=O)CC2)c1`, the half-maximal degradation concentration (DC50) in [1] was under 100 nM.

In turn, `CC1(C)CCC[C@H](NCc2cc(O)c(N3CC(=O)NS3(=O)=O)c(F)c2)C1` gave an IC50 in the assay on B16 of 770 nM.

On to `CCc1ccc(C(=O)NCCCC[C@H](NC(=O)[C@H](Cc2ccc(C(F)(F)P(=O)(O)O)cc2)NC(=O)[C@H](Cc2ccccc2)NC(=O)O[C@H]2C[C@@H](C)CC[C@@H]2C(C)C)C(=O)NCCOCCC(=O)Nc2cccc3c2CN(C2CCC(=O)NC2=O)C3=O)cc1` (some centres undefined), for which the DC50 in assay [1] is 35.8 nM. Also, the Selectivity Index in the assay listed under Homo sapiens was over 110.

On to `CC(C)CCN[C@@H]1CCc2cc(O)c(N3CC(=O)NS3(=O)=O)c(F)c2C1` [OSUNPROTAFIB], for which the half-inhibitory concentration (IC50) amounted to 1.8 nM in assay [5], 64 nM with B16 and 1.8 nM in assay [6]. Moreover, in assay [7], the EC50 was 180 nM.

`CC[C@@H]1CCN(CCc2cc(O)c(N3CC(=O)NS3(=O)=O)c(F)c2)C1` registered an IC50 with B16 of 130 nM.
